The values that follow come from PMC6608564 (Journal of the Endocrine Society, 2019).

Bounds are passed on as bounds.

Data set [1] can be described thus: Chronic OXT analog treatment in DIO mice. The settings on record: vs vehicle. It is filed as in vivo, C57BL/6 DIO mice.
Data set [2] is described as follows: Rat blood pressure telemetry. It is filed as in vivo, DIO male Long-Evans rats. The settings on record: IP 0.3, 1, 3 mg/kg, DIO Long-Evans rats.
The nature of data set [3]: Pharmacokinetic measurement by mass spectrometry in mice. It is filed as in vivo, C57BL/6 mice.
Data set [4] is described as follows: Food intake study with free-hand ICV injection. The settings on record: 3 μg per mouse ICV. It is filed as in vivo, male C57BL/6 mice.
The nature of a further data set: Acute food intake study. The settings on record: conivaptan 0.5 mg/kg IP coadministered with OXT 2 mg/kg IP, Fig. 3F. It is filed as in vivo, male C57BL/6 mice.
The next data set has as its target T1, human OXTR (Homo sapiens, UniProt P30559).
T1 sequence (P30559 1-389): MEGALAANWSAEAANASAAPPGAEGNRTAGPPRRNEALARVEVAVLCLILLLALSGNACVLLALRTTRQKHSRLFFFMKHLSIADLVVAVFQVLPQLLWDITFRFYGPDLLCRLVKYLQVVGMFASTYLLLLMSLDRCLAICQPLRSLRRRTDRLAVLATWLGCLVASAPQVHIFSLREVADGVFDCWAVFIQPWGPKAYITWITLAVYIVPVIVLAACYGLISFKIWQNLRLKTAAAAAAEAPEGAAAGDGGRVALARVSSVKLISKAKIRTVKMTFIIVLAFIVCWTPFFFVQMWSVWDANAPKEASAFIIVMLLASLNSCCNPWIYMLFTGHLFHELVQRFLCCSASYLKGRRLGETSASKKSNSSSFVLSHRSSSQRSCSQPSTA
Nature of the data set: FLIPR calcium assay, AV12 cells stably expressing human OXTR. It is filed as cell-based. The settings on record: Fig. 1 and Dryad data [67]; for receptor selectivity against vasopressin receptors (in words): OXTR vs V1a, V1b (FLIPR) and V2 (cAMP); for OXTR activity / potency (in words): in vitro OXTR assay.

Where [5] appears, read: C57BL/6, mouse, plasma, ip, 1 mg/kg.

In the case of `CC[C@H](C)[C@@H]1NC(=O)[C@H](Cc2ccc(O)cc2)NC(=O)[C@@H](N)CSSC[C@@H](C(=O)N2CCC[C@H]2C(=O)N[C@@H](CC(C)C)C(=O)NCC(N)=O)NC(=O)[C@H](CC(N)=O)NC(=O)[C@H](CCC(N)=O)NC1=O` [OXT, oxytocin], in data set [1], the serum potassium level result was “significantly lower”. Also, in data set [2], the “mean arterial pressure (MAP)” value was “dose-dependently caused a statistically significant increase of MAP”. In addition, the “time until plasma level dropped below detection” value in data set [3] (1 mg/kg IP, single dose, Fig. 2A) is less than 3 h. In data set [3] (setting [5]), the Tmax was approximately 30 min and the half-life was less than 30 min. Also, the “behavior during first hour after ICV injection (vocalization, grooming)” value in data set [4] is listed as “clinical signs of behavioral distress”.
As to `Cc1nc2c([nH]1)-c1ccccc1N(C(=O)c1ccc(NC(=O)c3ccccc3-c3ccccc3)cc1)CC2` [conivaptan], in “Acute food intake study”, the “effect on OXT-induced food intake suppression” value is reported as “abolished OXT’s effect on food intake suppression”.
On to TC OT39, for which, on human OXTR, the “receptor selectivity against vasopressin receptors (in words)” value is “high degree of OXTR selectivity”; the “OXTR activity / potency (in words)” value is “significantly decreased potency (EC50) and efficacy (Emax)”.
As for carbetocin [OXT^Butyryl], at human OXTR, the “receptor selectivity against vasopressin receptors (in words)” value is “increased receptor selectivity against vasopressin receptors” and the “OXTR activity / potency (in words)” value is “without affecting OXTR activation”.

What is called Tmax is the time from dosing to the highest level. A word on the half-life: it is how long it takes for the measured level to halve. The low end stands for rapid decline, the high end for slow decline.
